Laboratory results from patent US20070270429A1, “Function Inhibitor of Effector Cell” (priority 2003, published 2007).
Where two headings read alike, the source gives them in different places.

Tests used:
[1] = tested on: human CD4-positive Th1 differentiation cell; experiment: Cell growth inhibition test of human CD4-positive Th1 differentiation cell (anti-CD3 antibody stimulation, BrdU uptake); assay type: cell-based
Procedure: After treating the cells with BrdU for a predetermined period of time, the plate was centrifuged (300×g, 10 minutes), and then turned upside down and lightly shaken to remove the labeled medium. The plate was dried (for about 15 minutes) using a hair dryer. A cell fixing and DNA denaturing solution (200 μl, attached to the kit) was added to each well and left alone for 30 minutes. After removing the cell fixing and DNA denaturing solution and further removing water, a peroxidase-labeled anti-BrdU antibody (anti-BrdU-POD reaction solution) (100 μl) (attached to the kit) was added thereto and left alone at room temperature for 90 minutes. The antibody solution was discarded, each well was washed three times with PBS (200 μl), water was discarded, and then the substrate solution (100 μl) (attached to the kit) was added thereto. After carrying out the enzyme reaction for a period of 5 to 30 minutes, 1 N sulfuric acid solution (25 μl) was added thereto and stirred on a shaker. The absorbance of samples was measured by a microplate reader (SPECTRAMAX-PRO) at 450 nm (control wavelength: 690 nm).
The cells fractionated by the method described in the above-described (2-1) were inoculated into a 96 well plate coated with the anti-human CD3 antibody, at a cell density of 2×10^5 cells/100 μl/well, a medium (100 μl) containing 2 times concentration solution of each drug to be tested (contains 0.2% DMSO) was added thereto, and the cells were cultured for 48 hours in a CO2 incubator (5% CO2, humidity 95%) kept at 37° C. The BrdU uptake activity was measured by the method described in the above-described (2-4).
The cell growth inhibition activity of human CD8-positive memory T cell by the compounds of the […] was calculated as the inhibition ratio (%) in accordance with the following formula, in which the value of well to which the medium containing DMSO but not containing the drug to be tested was added was used as the control value (A), and the value of well to which the DMSO-containing medium containing the drug to be tested was added as the value (B). Inhibition ratio (%)=[(A−B)/A]×100 Results:
A heparinized blood sample was collected from a human, healthy volunteer, and peripheral blood mononuclear cell (PBMC) was isolated by the density gradient centrifugation described in the above-described (2-1). CD4-positive T cell was isolated from PBMC by a negative selection method using Human T Cell CD4 Subset Column Kit (R & D Systems, Inc). Specifically, the cells to be removed such as B cell, CD8-positive T cell, monocyte and the like were labeled with antibodies by adding an antibody cocktail (1 ml) (attached to the kit) to PBMC (up to 2×10^8 cells) and incubating at room temperature for 15 minutes. […]

human CCR5 = target: T1, human CCR5 (Homo sapiens, UniProt P51681); experiment: Migration test of human CCR5 expression cell (hCCR5-Ba/F3 cell); assay type: cell-based; settings: hCCR5-Ba/F3 cells, 3 hours
T1 construct: expressed in transfected cells
T1 sequence (P51681 whole entry): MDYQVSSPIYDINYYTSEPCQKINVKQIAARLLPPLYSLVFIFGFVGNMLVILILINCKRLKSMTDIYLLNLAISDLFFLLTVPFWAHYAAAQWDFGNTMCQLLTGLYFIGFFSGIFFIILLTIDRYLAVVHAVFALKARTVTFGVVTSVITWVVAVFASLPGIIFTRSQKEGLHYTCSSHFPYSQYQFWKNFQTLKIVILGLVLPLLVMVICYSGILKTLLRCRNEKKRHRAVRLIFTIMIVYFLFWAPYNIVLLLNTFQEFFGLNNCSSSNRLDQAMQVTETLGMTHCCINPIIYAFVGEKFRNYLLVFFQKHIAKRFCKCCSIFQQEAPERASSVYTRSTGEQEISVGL
Procedure: The Ba/F3 cell was statically cultured in a CO2 incubator (temperature: 37° C., CO2 concentration: 5%, humidity: 100%) using RPMI-1640 medium (Gibco BRL) containing an antibiotic preparation (Antibiotic-Antimycotic) (final concentration: penicillin G sodium (100 U/ml), streptomycin sulfate (100 μg/ml), amphotericin B (0.25 μg/ml)) (Gibco BRL), fetal bovine serum (FBS) (10%) and interleukin 3 (IL-3) (5 ng/ml) (Pepro Tech, Inc). For the culturing of an external gene stably over-expressing cell, blasticidin (Kaken Pharmaceutical) was added to the above-described medium to a final concentration of 10 μg/ml.
The plasmid for human CCR5 expression (pEF-BOS-bsr′/hCCR5) was made into linear chain by digesting with AatII. The linear-chained plasmid was purified using QIA Quick PCR Purification Kit (QIAGEN) and then transferred into Ba/F3 cell by electroporation (Gene Pulser (BIO RAD) 960 μF/250 V). The cells were inoculated into a 96 well culture plate at a cell density of 1000, 100 or 10 cells/100 μl/well, and 48 hours thereafter, blasticidin was added thereto to a final concentration of 10 μg/ml to carry out cloning of blasticidin resistant strains, thereby establishing a stable over-expression clone capable of expressing the transferred external gene (hCCR5-Ba/F3 cell).
The test was started by superposing the upper chamber on the lower chamber, and the cells were cultured for 3 hours in a CO2 incubator (5% CO2, humidity 95%) kept at 37° C. Outside bottom moiety of the upper chamber was washed out into the lower chamber using 0.5 ml of a washing buffer (phosphate buffered saline (PBS) containing sodium ethylenediaminetetraacetate (EDTA) (2 mM (and FBS (0.1%)), and the number of cells in the lower chamber was counted using a flow cytometer (Becton Dickinson).
The migration inhibition activity by the compounds of the present invention was calculated as the inhibition ratio (%) in accordance with the following formula, in which the value of well to which the medium containing DMSO but not containing the drug to be tested was added was used as the control value (A), and the value of well to which the DMSO-containing medium containing the drug to be tested was added as the value (B). Inhibition ratio (%)=[(A−B)/A]×100

[2] = MIP-1α 3 nM in lower chamber, read-out: IC50 (nM), migration inhibition, chemokine MIP-1α
[3] = MIP-1β 3 nM in lower chamber, read-out: IC50 (nM), migration inhibition, chemokine MIP-1β
[4] = RANTES 3 nM in lower chamber, read-out: IC50 (nM), migration inhibition, chemokine RANTES

Structure (SMILES)	inhibition ratio of cell growth ([1]; 0.1 μM) [%]	inhibition ratio of cell growth ([1]; 10 μM) [%]	IC50 (human CCR5; [2]) [nM]	IC50 (human CCR5; [3]) [nM]	IC50 (human CCR5; [4]) [nM]
CCCCN1C(=O)[C@@H]([C@H](O)C2CCCCC2)NC(=O)C12CCN(Cc1ccc(Cc3ccc(C(=O)O)cc3OC)cc1)CC2 [Compound (b), 4-[4-({(3R)-1-butyl-3-[(R)-cyclohexyl(hydroxy)methyl]-2,5-dioxo-1,4,9-triazaspiro[5.5]undec-9-yl}methyl)benzyl]-3-methoxybenzoic acid]	−2.3	21.8	9.8	11.1	12.4
CCCCN1C(=O)[C@@H]([C@H](O)C2CCCCC2)NC(=O)C12CCN(Cc1ccc(Oc3ccc(C(=O)O)cc3OCC)cc1)CC2.Cl [Compound (c), 4-[4-({(3R)-1-butyl-3-[(R)-cyclohexyl(hydroxy)methyl]-2,5-dioxo-1,4,9-triazaspiro[5.5]undec-9-yl}methyl)phenoxy]-3-ethoxybenzoic acid hydrochloride]	48.3	47.7	17.3	18.4	22.5
